Results: US8618080B2, “Immunomodulatory compounds and treatment of diseases related to an overproduction of inflammatory cytokines” (OM Pharma, priority 2006, dated 2013)

Columns and labels:
[1] = test system: human CD4+ T cells; assay: Cytokine production and proliferation of naïve CD4+ T cells stimulated with anti-CD3 and anti-CD28; type: cell-based; settings: 0.02-20 μg/ml; for IFN-γ production by CD4+ T cells / IL-13 production by CD4+ T cells: 6 days, ELISA
Protocol: A series of four compounds of the present invention (OM-197-MP-AC, OM-197-MC-HD, OM-294-BA-MP, OM-197-MP-HD) were tested directly as summarized below:
Naïve CD4^+ T cells were magnetically sorted from healthy blood donor (buffy coat). The cells were stimulated in the presence or not of graded doses of triacyl derivatives (0.02; 0.2; 2 and 20 μg/ml) using plate-bound anti-CD3 (5 μg/ml) and soluble anti-CD28 (1 μg/ml). After 6 days, cytokine levels (IFN-γ and IL-13) were tested in the culture supernatants using ELISA.
FIGS. 3A-3D: Effect of increasing doses of the four compounds tested (OM-197-MP-AC, n=5; OM-197-MC-HD, n=5; OM-294-BA-MP, n=7; OM-197-MP-HD, n=3) on IFN-γ and IL-13 production of human CD4^+ T cells following a polyclonal activation. Results are expressed as the median (±p25/p75) of n independent experiments and show the percentage (%) proliferation or cytokine production of treated cells versus untreated cells (considered as 100%, see dotted line). The statistical analysis was performed using a nonparametric unpaired Mann-Whitney t test (2-tailed).

[2] = test system: murine DC cells; assay: LPS-induced IL-12, TNF-α and IL-10 production by bone marrow derived dendritic cells; type: cell-based, murine (C57BL/7); settings: murine BM-derived DC; compound 0.01-100 μg/ml 1 h 30 before LPS 1 μg/ml; 20 h; ELISA
Protocol: Femora and tibiae from two male C57BL/7, 6 week-old (Charles River Laboratories France), were removed, stripped of muscles and tendons, and desinfected with 70% ethanol. Both ends of each bone were cut and the marrow was flushed with HBSS (Gibco BRL) using a syringe with a 26-gauge needle. The resulting cell suspension was centrifuged for 5 min. at 500 g and washed in HBSS. The cells were resuspended at 3×10^5 cells/ml in RPMI-1640 (Gibco BRL) supplemented with 2 mM L-glutamin (Sigma), 100 U/ml penicillin (Sigma), 100 μg/ml streptomycin (Sigma), 50 μM β-mercaptoethanol (Sigma), 10% heat-inactivated FCS (Sigma) and 15 ng/ml murine rGM-CSF (R&D).
To generate bone marrow (BM) derived dendritic cells (DC), BM leukocytes were cultured in 100-mm bacteriological petri dishes (Falcon 1029) for 8 days at 37° C. in 5% CO2. On day 0, 10 ml of cell suspension were seeded per dish. On day 3, another 10 ml of freshly prepared medium were added to each plate and on day 6, 9 ml of top medium were carefully removed from each plate and replaced by 10 ml of fresh medium.
Non-adherent cells of the 8-day old BM cell cultures were collected, centrifuged for 5 min. at 500 g, and resuspended at 1.25×10^6 cells/ml in supplemented RPMI containing 10 ng/ml GM-CSF. The cells were then seeded in 24-well tissue culture plates ([…]) and incubated for 1 h 30 at 37° C. in 5% CO2 in the absence or presence of OM-294-DP or OM-197-MP-AC (0.01-100 μg/ml/200 μl/well). LPS (E.coli O26:B6, Sigma), was then added at 1 μg/ml, and the plates were further incubated. After 20 h incubation, the supernatants were collected for analysis of cytokines. IL-12p70, IL-10, and TNF-α concentrations in DC culture supernatants were measured by ELISA using OptEIA matched Ab pairs from BD Pharmingen. Supersignal ELISA Pico chemiluminescent peroxidase substrate (BD Pharmingen) was used for the detection by luminometry (Wallac 1420 multilabel counter Victor-2). The assays were performed according to manufacturer's instructions.
FIG. 1: IL-12 (left panels) and IL-10 (right panels) secretion by murine DC stimulated by LPS (1 μg/ml) alone, or first during 90 minutes with the indicated concentrations (in μg/ml) of OM-197-MP-AC (A) or 294-DP (B), and then by LPS (1 μg/ml) for 20 additional hours. The supernatants were collected from the DC cultures and analyzed by ELISA for the presence of IL-12 and IL-10.
FIG. 2: TNF-α secretion by murine DC stimulated by LPS (1 μg/ml) alone, or first during 90 minutes with the indicated concentrations (in μg/ml) of 294-DP (294), or of OM-197-MP-AC (197), and then by LPS (1 μg/ml) for 20 additional hours. The supernatants were collected from the DC cultures and analyzed by ELISA for the presence of TNF-α.

[3] = test system: Limulus Amoebocyte Lysate; assay: Limulus Amoebocyte Lysate chromogenic test (LAL endotoxicity); type: biochemical
Protocol: Endotoxicity was determined first for OM-197-MP-AC and for OM-294-DP by the Limulus Amoebocyte Lysate chromogenic test (Chromogenic-LAL of Bio-Whittaker, kit n° 50-65OU).
The enzymatic reaction is carried out at 37° C. and the formation of the chromogen over time is measured at 405 nm. The time necessary to reach 0.2 units of D.O. is recorded and the endotoxic activity calculated in relation to a LPS standard (standard curve). The results are expressed in EU (Endotoxin Unit) in relation to a standardized preparation of E. coli LPS (1 EU corresponds to 0.08 ng equivalent LPS).

For `CCCCCCCCCCCC(=O)O[C@H](CCCCCCCCCCC)CC(=O)N[C@@H](CCOP(=O)(O)O)C(=O)NCCC[C@H](COC(=O)CCCCC(O)CO)NC(=O)C[C@H](O)CCCCCCCCCCC` (stereo partly drawn) [OM-197-MP-HD, (3S, 9R)-3-[(R)-3-dodecanoyloxytetradecanoylamino]-4-oxo-5-aza-9-[(R)-3-hydroxytetradecanoylamino]-decan-1, 10-diol 1-dihydrogenophosphate 10-(6,7-dihydroxyheptanoate)], the T cell proliferation [1] was “unaffected”, the “IFN-γ production by CD4+ T cells” value [1] was “unaffected” and the “IL-13 production by CD4+ T cells” value [1] was “reduced”.

`CCCCCCCCCCCC(=O)O[C@H](CCCCCCCCCCC)CC(=O)N[C@@H](CC(=O)O)C(=O)NCCC[C@H](COC(=O)CCCCC(O)CO)NC(=O)C[C@H](O)CCCCCCCCCCC` (stereo partly drawn) [OM-197-MC-HD, N-[(R)-3-dodecanoyloxytetradecanoylamino]-L-aspartic acid, α-N-{(4R)-5-hydroxy-4-[(R)-3-hydroxytetradecanoylamino]pentyl}amide 5-O-(6,7-dihydroxyheptanoate)] was tested, and the T cell proliferation [1] was “unaffected”, the “IFN-γ production by CD4+ T cells” value [1] was “unaffected” and the “IL-13 production by CD4+ T cells” value [1] was “reduced”.

For `CCCCCCCCCCCC(=O)O[C@H](CCCCCCCCCCC)CC(=O)N[C@@H](CCCCN)C(=O)NCCC[C@H](COP(=O)(O)O)NC(=O)C[C@H](O)CCCCCCCCCCC` [OM-294-BA-MP, (5S,11R)-1-Amino-5-[(R)-3-dodecanoyloxytetradecanoylamino]-6-oxo-7-aza-11-[(R)-3-hydroxytetradecanoylamino]-dodecan-12-ol 12-dihydrogenophosphate], the T cell proliferation [1] was “unaffected”, the “IFN-γ production by CD4+ T cells” value [1] was “unaffected” and the “IL-13 production by CD4+ T cells” value [1] was “reduced”.

In the case of `CCCCCCCCCCCC(=O)O[C@H](CCCCCCCCCCC)CC(=O)N[C@@H](CCOP(=O)(O)O)C(=O)NCCC[C@H](COP(=O)(O)O)NC(=O)C[C@H](O)CCCCCCCCCCC` [OM-294-DP], the “LPS-induced production of IL-10” value [2] is reported as “increase”, the “LPS-induced production of IL-12” value [2] is reported as “decrease” and the “LPS-induced production of TNF-α” value [2] is reported as “decrease”. The “Limulus activity in the chromogenic LAL assay” value [3] was “very little or no Limulus activity”.
